Results on 27 compounds are retold here after US6667335B2, “Imidazole derivatives” (Hoffmann-La Roche Inc., priority 2001, dated 2003).

A value given as a limit tells only on which side of the number the result lay.

The target in one data set is T1, NMDA-receptor subtype 2B (Rattus norvegicus, UniProt P35439+Q00960).
T1 construct: Membranes were prepared by homogenization of the whole brain minus cerebellum and medulla oblongata; from tissue; host or cells: rat whole brain minus cerebellum and medulla oblongata, membrane preparation
The experiment in a line: 3H-Ro 25-6981 binding (displacement) on rat brain membranes. To be noted: displacement of 5 nM 3H-Ro 25-6981, rat whole brain membranes (minus cerebellum and medulla oblongata), 2 hours at 4° C. The method, then:
^3H[R-(R*,S*)]-(α-(4-Hydroxy-phenyl)-β-methyl-4-(phenyl-methyl)-1-piperidine propanol)binding
Male Füllinsdorf albino rats weighing between 150-200 g were used. Membranes were prepared by homogenization of the whole brain minus cerebellum and medulla oblongata with a Polytron (10.000 rpm, 30 seconds), in 25 volumes of a cold Tris-HCl 50 mM, EDTA 10 mM, pH 7.1 buffer. The homogenate was centrifuged at 48,000 g for 10 minutes at 4° C. The pellet was resuspended using the Polytron in the same volume of buffer and the homogenate was incubated at 37° C. for 10 minutes. After centrifugation the pellet was homogenized in the same buffer and frozen at −80° C. for at least 16 hours but not more than 10 days. For the binding assay the homogenate was thawed at 37° C., centrifuged and the pellet was washed three times as above in a Tris-HCl 5 mM, pH 7.4 cold buffer. The final pellet was resuspended in the same buffer and used at a final concentration of […]. ^3H-Ro 25-6981 binding experiments were performed using a Tris-HCl 50 mM, pH 7.4 buffer. For displacement experiments 5 nM of ^3H-Ro 25-6981 were used and non specific binding was measured using 10 mM of tetrahydroisoquinoline and usually it accounts for 10% of the total. The incubation time was 2 hours at 4° C. and the assay was stopped by filtration on Whatmann GF/B glass fiber filters (Unifilter-96, Packard, Zürich, Switzerland). The filters were washed 5 times with cold buffer. The radioactivity on the filter was counted on a Packard Top-count microplate scintillation counter after addition of […] of microscint 40 (Canberra Packard S.A., Zuirich, Switzerland).
The effects of compounds were measured using a minimum of 8 concentrations and repeated at least once.

T1 sequence (Q00960 27-1482, other chains not shown): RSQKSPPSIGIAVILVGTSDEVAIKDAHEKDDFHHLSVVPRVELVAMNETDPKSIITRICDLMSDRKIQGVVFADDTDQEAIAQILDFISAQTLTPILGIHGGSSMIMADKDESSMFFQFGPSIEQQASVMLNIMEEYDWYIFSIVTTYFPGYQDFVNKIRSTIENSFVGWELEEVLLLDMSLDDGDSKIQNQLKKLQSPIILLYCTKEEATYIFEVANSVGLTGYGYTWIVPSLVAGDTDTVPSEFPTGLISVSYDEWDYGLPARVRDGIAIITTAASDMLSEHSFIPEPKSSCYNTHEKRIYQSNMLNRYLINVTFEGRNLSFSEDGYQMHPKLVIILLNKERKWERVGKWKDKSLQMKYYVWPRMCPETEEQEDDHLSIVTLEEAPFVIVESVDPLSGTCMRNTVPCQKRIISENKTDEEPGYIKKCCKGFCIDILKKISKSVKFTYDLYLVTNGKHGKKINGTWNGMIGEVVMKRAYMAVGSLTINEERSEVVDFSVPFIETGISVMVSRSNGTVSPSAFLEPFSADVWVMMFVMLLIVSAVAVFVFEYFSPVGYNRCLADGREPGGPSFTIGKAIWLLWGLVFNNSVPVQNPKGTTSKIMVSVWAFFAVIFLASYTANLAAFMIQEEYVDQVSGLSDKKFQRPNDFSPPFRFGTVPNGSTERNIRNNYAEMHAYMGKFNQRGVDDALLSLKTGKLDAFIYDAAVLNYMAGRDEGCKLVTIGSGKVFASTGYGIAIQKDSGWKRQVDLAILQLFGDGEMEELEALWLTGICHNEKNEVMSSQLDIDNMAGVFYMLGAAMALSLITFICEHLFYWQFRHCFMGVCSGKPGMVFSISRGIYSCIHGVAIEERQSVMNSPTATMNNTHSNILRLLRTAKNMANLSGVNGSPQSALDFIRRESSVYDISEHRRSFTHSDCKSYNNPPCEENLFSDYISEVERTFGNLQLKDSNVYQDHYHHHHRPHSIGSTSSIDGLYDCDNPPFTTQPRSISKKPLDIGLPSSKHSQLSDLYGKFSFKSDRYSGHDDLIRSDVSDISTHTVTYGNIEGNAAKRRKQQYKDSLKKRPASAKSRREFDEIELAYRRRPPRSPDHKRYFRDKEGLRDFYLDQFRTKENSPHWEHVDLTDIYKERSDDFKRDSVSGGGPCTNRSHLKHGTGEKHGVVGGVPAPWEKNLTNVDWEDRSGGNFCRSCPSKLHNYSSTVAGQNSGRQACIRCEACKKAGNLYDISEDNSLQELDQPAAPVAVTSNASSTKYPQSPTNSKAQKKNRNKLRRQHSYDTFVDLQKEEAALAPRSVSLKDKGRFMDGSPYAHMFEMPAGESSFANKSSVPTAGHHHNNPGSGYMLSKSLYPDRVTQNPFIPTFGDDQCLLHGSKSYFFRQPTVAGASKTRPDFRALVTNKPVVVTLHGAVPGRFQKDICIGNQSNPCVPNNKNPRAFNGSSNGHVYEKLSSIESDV

As to `Cc1nccn1Cc1ncn(-c2ccc(Cl)c(Cl)c2)c1C.Cl.Cl` [Example 103, 1H-Imidazole, 1-(3,4-Dichlorophenyl)-5-methyl-4-[(2-methyl-1H-imidazol-1-yl)methyl]-, Hydrochloride (1:2)], the melting point is > 240 °C (dec.). Moreover, the IC50 on NMDA-receptor subtype 2B was 0.043 µM.

On to `OCc1nccn1Cc1cn(-c2ccc(Cl)c(Cl)c2)cn1` [Example 109, {1-[1-(3,4-Dichloro-phenyl)-1H-imidazol-4-yl-methyl]-1H-imidazol-2-yl}-methanol], for which the melting point lay in the range of 202 to 203 °C. Also, the concentration for half-maximal inhibition (IC50) at NMDA-receptor subtype 2B amounted to 0.085 µM.

`CCNc1nccn1Cc1cn(-c2ccc(Cl)c(Cl)c2)cn1.Cl.Cl` [Example 111, {1-[1-(3,4-Dichloro-phenyl)-1H-imidazol-4-yl-methyl]-1H-imidazol-2-yl}-ethyl-amine Hydrochloride (1:2)]: the melting point is greater than 250 °C. Further, the half-inhibitory concentration (IC50) on NMDA-receptor subtype 2B stood at 0.011 µM.

Compound `Cc1nccn1Cc1cn(-c2cccc(SC(F)(F)F)c2)cn1.Cl.Cl` [Example 144, 1H-Imidazole, 2-Methyl-1-[[1-[3-(trifluoromethylthio)phenyl]-1H-imidazol-4-yl]methyl]-, Hydrochloride (1:2)] yielded a melting point of 169 to 170 °C. On NMDA-receptor subtype 2B, this compound showed a 50% inhibitory concentration (IC50) of 0.038 µM.

For the compound `CCc1nccn1Cc1cn(-c2cccc(C(C)(F)F)c2)cn1.Cl.Cl` [Example 146, 1H-Imidazole, 1-[[1-[3-(1,1-Difluoroethyl)phenyl]-1H-imidazol-4-yl]methyl]-2-ethyl-, Hydrochloride (1:2)], the melting point is 130 to 134 °C (dec.). At NMDA-receptor subtype 2B, this compound returned a 50% inhibitory concentration (IC50) of 0.008 µM.

Turning to `Cc1nccn1Cc1cn(-c2cccc(C(C)(F)F)c2)cn1.Cl.Cl` [Example 147, 1H-Imidazole, 1-[[1-[3-(1,1-Difluoroethyl)phenyl]-1H-imidazol-4-yl]methyl]-2-methyl-, Hydrochloride (1:2)], the melting point is > 200 °C (dec.). At NMDA-receptor subtype 2B, this compound gave an IC50 of 0.0092 µM.

Take `Cc1nccn1Cc1cn(-c2ccc(F)c(C(C)(F)F)c2)cn1.Cl.Cl` [Example 149, 1H-Imidazole, 1-[[1-[3-(1,1-Difluoroethyl)-4-fluorophenyl]-1H-imidazol-4-yl]methyl]-2-methyl-, Hydrochloride (1:2)]: the melting point is > 200 °C (dec.). For the same compound, the IC50 at NMDA-receptor subtype 2B is 0.0082 µM.

In the case of `CC(F)(F)c1cc(-n2cnc(Cn3ccnc3)c2)ccc1F.Cl.Cl` [Example 150, 1-[3-(1,1-Difluoro-ethyl)-4-fluoro-phenyl]-4-imidazol-1-ylmethyl-1H-imidazole Hydrochloride (1:2)], the melting point is > 200 °C (dec.). On NMDA-receptor subtype 2B, this compound had a 50% inhibitory concentration (IC50) of 0.0135 µM.

For the compound `Cc1nccn1Cc1cn(-c2cccc(C(C)C)c2)cn1.Cl.Cl` [Example 152, 1H-Imidazole, 1-[[1-(3-Isopropylphenyl)-1H-imidazol-4-yl]methyl]-2-methyl-, Hydrochloride (1:2)], the melting point is > 200 °C (dec.). Further, on NMDA-receptor subtype 2B, the IC50 turned out to be 0.01 µM.

In turn, `CC(C)c1cccc(-n2cnc(Cn3ccnc3)c2)c1.Cl.Cl` [Example 154, 4-Imidazol-1-ylmethyl-1-(3-isopropyl-phenyl)-1H-imidazole Hydrochloride (1:2)] yielded a melting point of 200 to 206 °C. For the same compound, on NMDA-receptor subtype 2B, the IC50 was 0.048 µM.

As to `CCc1nccn1Cc1cn(-c2ccc(F)c(Br)c2)cn1.Cl.Cl` [Example 156, 1H-Imidazole, 1-[[1-(3-Bromo-4-fluorophenyl)-1H-imidazol-4-yl]methyl]-2-ethyl-, Hydrochloride (1:2)], the melting point is 238 to 239 °C. Further, the IC50 on NMDA-receptor subtype 2B worked out at 0.014 µM.

`Cc1nccn1Cc1cn(-c2ccc(F)c(Br)c2)cn1.Cl.Cl` [Example 157, 1H-Imidazole, 1-[[1-(3-Bromo-4-fluorophenyl)-1H-imidazol-4-yl]methyl]-2-methyl-, Hydrochloride (1:2)] yielded a melting point of 232 to 233 °C. The IC50 at NMDA-receptor subtype 2B came to 0.014 µM.

Compound `Cl.Cl.Fc1ccc(-n2cnc(Cn3ccnc3)c2)cc1Br` [Example 158, 1-(3-Bromo-4-fluoro-phenyl)-4-imidazol-1-ylmethyl-1H-imidazole Hydrochloride (1:2)] yielded a melting point of 229 to 230 °C. The compound also had an IC50 on NMDA-receptor subtype 2B of 0.041 µM.

Take `CCc1cccc(-n2cnc(Cn3ccnc3C)c2)c1.Cl.Cl` [Example 159, 1H-Imidazole, 1-[[1-(3-Ethylphenyl)-1H-imidazol-4-yl]methyl]-2-methyl-, Hydrochloride (1:2)]: the melting point is > 200 °C (dec.). At NMDA-receptor subtype 2B, this compound displayed an IC50 of 0.014 µM.

As for `CCc1cccc(-n2cnc(Cn3ccnc3CC)c2)c1.Cl.Cl` [Example 160, 1H-Imidazole, 2-Ethyl-1-[[1-(3-ethylphenyl)-1H-imidazol-4-yl]methyl]-, Hydrochloride (1:2)], the melting point was > 200 °C (dec.). The same compound came in with a half-maximal inhibitory concentration (IC50) at NMDA-receptor subtype 2B of 0.016 µM.

On to `CCc1cccc(-n2cnc(Cn3ccnc3)c2)c1.Cl.Cl` [Example 161, 1-(3-Ethyl-phenyl)-4-imidazol-1-ylmethyl-1H-imidazole Hydrochloride (1:2)], for which the melting point was > 190 °C (dec.). The IC50 on NMDA-receptor subtype 2B turned out to be 0.05 µM.

`Cc1nccn1Cc1cn(-c2cccc(C3CC3)c2)cn1.Cl.Cl` [Example 162, 1H-Imidazole, 1-[[1-(3-Cyclopropylphenyl)-1H-imidazol-4-yl]methyl]-2-methyl-, Hydrochloride (1:2)] showed a melting point of 174 to 175 °C. In addition, the IC50 on NMDA-receptor subtype 2B was found to be 0.016 µM.

For the compound `Cc1nccn1Cc1cn(-c2ccc(F)c(C(F)F)c2)cn1.Cl.Cl` [Example 163, 1H-Imidazole, 1-[[1-(3-Difluoromethyl-4-fluorophenyl)-1H-imidazol-4-yl]methyl]-2-methyl-, Hydrochloride (1:2)], the melting point was 223 to 225 °C (dec.). This compound also registered an IC50 on NMDA-receptor subtype 2B of 0.017 µM.

On to `Cl.Cl.Fc1ccc(-n2cnc(Cn3ccnc3)c2)cc1C(F)F` [Example 165, 1-(3-Difluoromethyl-4-fluoro-phenyl)-4-imidazol-1-ylmethyl-1H-imidazole Hydrochloride (1:2)], for which the melting point is 239 to 241 °C. The compound further gave a half-maximal inhibitory concentration (IC50) at NMDA-receptor subtype 2B of 0.046 µM.

On to `CCc1nccn1Cc1cn(-c2cccc(SC)c2)cn1.Cl.Cl` [Example 166, 1H-Imidazole, 2-Ethyl-1-[[1-[3-(methylthio)phenyl]-1H-imidazol-4-yl]methyl]-, Hydrochloride (1:2)], for which the melting point was > 200 °C (dec.). On NMDA-receptor subtype 2B, the IC50 came to 0.02 µM.

In turn, `Cc1nccn1Cc1cn(-c2cccc(OC(F)(F)F)c2)cn1.Cl.Cl` [Example 170, 1H-Imidazole, 2-Methyl-1-[[1-[3-(trifluoromethoxy)phenyl]-1H-imidazol-4-yl]methyl]-, Hydrochloride (1:2)] returned a melting point of 221 to 223 °C. Further, the IC50 at NMDA-receptor subtype 2B was 0.039 µM.

`C=Cc1cccc(-n2cnc(Cn3ccnc3C)c2)c1.Cl.Cl` [Example 172, 1H-Imidazole, 2-Methyl-1-[[1-(3-vinylphenyl)-1H-imidazol-4-yl]methyl]-, Hydrochloride (1:2)] showed a melting point of 207 to 208 °C. At NMDA-receptor subtype 2B, this compound registered an IC50 of 0.024 µM.

As for `CCc1nccn1Cc1cn(-c2cccc(Cl)c2)cn1.Cl.Cl` [Example 174, 1H-Imidazole, 1-[[1-(3-Chlorophenyl)-1H-imidazol-4-yl]methyl]-2-ethyl-, Hydrochloride (1:2)], the melting point was > 200 °C (dec.). This compound also had an IC50 on NMDA-receptor subtype 2B of 0.063 µM.

As to `Cc1nccn1Cc1cn(-c2cccc(I)c2)cn1.Cl.Cl` [Example 176, 1H-Imidazole, 1-[[1-(3-Iodophenyl)-1H-imidazol-4-yl]methyl]-2-methyl-, Hydrochloride (1:2)], the melting point was > 222 °C (dec.). The half-inhibitory concentration (IC50) on NMDA-receptor subtype 2B was determined as 0.032 µM.

`CCc1nccn1Cc1cn(-c2cc(F)cc(C(F)(F)F)c2)cn1.Cl.Cl` [Example 177, 1H-Imidazole, 2-Ethyl-1-[[1-[3-fluoro-5(trifluoromethyl)phenyl]-1H-imidazol-4-yl]methyl]-, Hydrochloride (1:2)] yielded a melting point of 243 to 244 °C. For the same compound, the half-maximal inhibitory concentration (IC50) at NMDA-receptor subtype 2B was found to be 0.0375 µM.

On to `Cc1nccn1Cc1cn(-c2cc(F)cc(C(F)(F)F)c2)cn1.Cl.Cl` [Example 178, 1H-Imidazole, 1-[[1-[3-Fluoro-5(trifluoromethyl)phenyl]-1H-imidazol-4-yl]methyl]-2-methyl-, Hydrochloride (1:2)], for which the melting point was greater than 250 °C. At NMDA-receptor subtype 2B, this compound came in with an IC50 of 0.074 µM.

`COc1cc(-n2cnc(Cn3ccnc3C)c2)cc(C(F)(F)F)c1.Cl.Cl` [Example 180, 1H-Imidazole, 1-[[1-[3-Methoxy-5(trifluoromethyl)phenyl]-1H-imidazol-4-yl]methyl]-2-methyl-, Hydrochloride (1:2)]: the melting point was in the range of 246 to 247 °C. Also, at NMDA-receptor subtype 2B, the IC50 amounted to 0.05 µM.
